Measurements published in patent US11813306B2, “Cyclic tetramer compounds as proprotein convertase subtilisin/kexin type 9 (PCSK9) inhibitors for the treatment of metabolic disorders” (NOVARTIS AG, priority 2018, dated 2023).

Molecular target: human PCSK9 (Homo sapiens, UniProt Q8NBP7)
Assay: PCSK9 ligand binding assay (TR-FRET): interference with binding of human PCSK9 to human LDLR
Settings: for IC50: Human PCSK9 Alexa Fluor 647 / Human LDLR extracellular domain-Europium Kryptate; for Max % inhibition: efficacy (Amax), 100% = 1 uM unlabeled human PCSK9, 0% = DMSO
Method in brief: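 Read-out was TR-FRET ratio (665 nm over 615 nm, 330 nm excitation) between Alexa Fluor 647-human PCSK9 (16 nM added) and Europium Kryptate-human LDLR ectodomain (4 nM added). Compound and PCSK9 were mixed 30 min before LDLR, then incubated 2 h. Inhibition was normalised to DMSO and unlabelled-PCSK9 controls, giving IC50 and Amax.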

Sequence of human PCSK9 (Q8NBP7 153-692): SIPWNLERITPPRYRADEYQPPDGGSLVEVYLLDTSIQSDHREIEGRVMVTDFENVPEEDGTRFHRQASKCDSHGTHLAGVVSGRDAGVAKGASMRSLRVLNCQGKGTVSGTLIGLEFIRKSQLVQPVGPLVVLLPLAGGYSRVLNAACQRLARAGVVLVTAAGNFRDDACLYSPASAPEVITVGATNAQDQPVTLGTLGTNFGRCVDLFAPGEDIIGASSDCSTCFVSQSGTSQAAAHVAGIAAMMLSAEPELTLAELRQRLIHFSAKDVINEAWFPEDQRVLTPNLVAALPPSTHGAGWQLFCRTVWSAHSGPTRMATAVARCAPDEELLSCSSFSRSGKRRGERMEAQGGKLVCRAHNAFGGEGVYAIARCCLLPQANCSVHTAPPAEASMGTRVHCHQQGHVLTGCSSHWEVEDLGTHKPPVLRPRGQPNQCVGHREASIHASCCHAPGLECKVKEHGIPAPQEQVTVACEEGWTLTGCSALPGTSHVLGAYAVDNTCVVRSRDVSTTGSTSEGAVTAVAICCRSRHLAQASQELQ
Sequence of human PCSK9 (Q8NBP7 31-152 partner limits assumed): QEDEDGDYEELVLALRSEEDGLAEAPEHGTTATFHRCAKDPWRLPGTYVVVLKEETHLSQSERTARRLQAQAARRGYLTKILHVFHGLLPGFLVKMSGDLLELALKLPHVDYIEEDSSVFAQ

Compound	IC50 [nM]	Max % inhibition [%]
COC[C@@H]1NC(=O)[C@H](C)N(Cc2ccc(Cl)cc2Oc2ccc(-c3cnc(CN4CCCC4)n3C)cc2)C(=O)C[C@@H](Cc2ccccc2)C(=O)NC[C@@H](Cc2ccc(Cl)cc2)N(C)C1=O.Cl [Compound 92, (2S, 5S, 8R, 12R)-12-benzyl-1-(4-chloro-2-(4-(1-methyl-2-(pyrrolidin-1-ylmethyl)-1H-imidazol-5-yl)phenoxy)benzyl)-8-(4-chlorobenzyl)-5-(methoxymethyl)-2,7-dimethyl-1,4,7,10-tetraazacyclotetradecane-3,6,11,14-tetraone]	2.37	104.1
C[C@H]1C[C@H]([C@@H]2CC(=O)N(Cc3ccc(Cl)cc3Oc3ccc(-c4cnc(CN5CCCC5)n4C)cc3)[C@@H](C)C(=O)N[C@@H](CO)C(=O)N(C)[C@H](Cc3ccc(Cl)cc3)CN(C)C2=O)c2ccccc21.Cl [Compound 93, (2S, 5S, 8R, 12S)-1-(4-chloro-2-(4-(1-methyl-2-(pyrrolidin-1-ylmethyl)-1H-imidazol-5-yl)phenoxy)benzyl)-8-(4-chlorobenzyl)-5-(hydroxymethyl)-2,7,10-trimethyl-12-((1R, 3S)-3-methyl-2,3-dihydro-1H-inden-1-yl)-1,4,7,10-tetraazacyclotetradecane-3,6,11,14-tetraone]	1.4	103.0
COC[C@@H]1NC(=O)[C@H](C)N(Cc2ccc(Cl)cc2Oc2ccc(-c3cnc(CN(C)C)n3C)nc2)C(=O)C[C@@H](Cc2ccccn2)C(=O)N2CCC[C@@](Cc3ccc(Cl)cc3)(C2)N(C)C1=O [Compound 94, (3R,7S,10S,13R)-6-(4-Chloro-2-((6-(2-((dimethylamino)methyl)-1-methyl-1H-imidazol-5-yl)pyridin-3-yl)oxy)benzyl)-13-(4-chlorobenzyl)-10-(methoxymethyl)-7,12-dimethyl-3-(pyridin-2-ylmethyl)-1,6,9,12-tetraazabicyclo[11.3.1]heptadecane-2,5,8,11-tetraone]	0.978	107.7
COC[C@@H]1NC(=O)[C@H](C)N(Cc2ccc(Cl)cc2Oc2ccc(-c3cnc(CN(C)C)n3C)cc2)C(=O)C[C@@H]([C@@H]2CCc3ccccc32)C(=O)N2CCC[C@@](Cc3ccc(Cl)cc3)(C2)NC1=O.Cl [Compound 95, (3S, 7S, 10S, 13R)-6-(4-chloro-2-(4-(2-((dimethylamino)methyl)-1-methyl-1H-imidazol-5-yl)phenoxy)benzyl)-13-(4-chlorobenzyl)-3-((S)-2,3-dihydro-1H-inden-1-yl)-10-(methoxymethyl)-7-methyl-1,6,9,12-tetraazabicyclo[11.3.1]heptadecane-2,5,8,11-tetraone]	1.88	102.5
C[C@@H](O)[C@@H]1NC(=O)[C@H](C)N(Cc2ccc(Cl)cc2Oc2ccc(-c3cnc(CN(C)C)n3C)cc2)C(=O)C[C@@H](CC(F)(F)F)C(=O)N2CCC[C@@](Cc3ccc(Cl)cc3)(C2)NC1=O [Compound 97, (3S, 7S, 10S, 13R)-6-(4-chloro-2-(4-(2-((dimethylamino)methyl)-1-methyl-1H-imidazol-5-yl)phenoxy)benzyl)-13-(4-chlorobenzyl)-10-((R)-1-hydroxyethyl)-7-methyl-3-(2,2,2-trifluoroethyl)-1,6,9,12-tetraazabicyclo[11.3.1]heptadecane-2,5,8,1-tetraone]	2.08	91.2
C[C@H]1C(=O)N[C@@H](CO)C(=O)N[C@@]2(Cc3ccc(Cl)cc3)CCCN(C2)C(=O)[C@H](Cc2ccccc2)CC(=O)N1Cc1c(Cl)cc(Cl)cc1Oc1ccc(-c2cnc(CN(C)C)n2C)cc1 [Compound 98, (3R, 7S, 10S, 13R)-3-benzyl-13-(4-chlorobenzyl)-6-(2,4-dichloro-6-(4-(2-((dimethylamino)methyl)-1-methyl-1H-imidazol-5-yl)phenoxy)benzyl)-10-(hydroxymethyl)-7-methyl-1,6,9,12-tetraazabicyclo+11.3.111-tetraone]	2.41	108.6
C[C@@H]1CC(=O)N(Cc2c(F)cc(Cl)cc2Oc2ccc(-c3cnc(CN(C)C)n3C)cc2)[C@@H](C)C(=O)N[C@@H](CO)C(=O)N(C)[C@@]2(Cc3ccc(Cl)cc3)CCCN(C2)C1=O [Compound 99, (3R, 7S, 10S, 13R)-6-(4-chloro-2-(4-(2-((dimethylamino)methyl)-1-methyl-1H-imidazol-5-yl)phenoxy)-6-fluorobenzyl)-13-(4-chlorobenzyl)-10-(hydroxymethyl)-3,7,12-trimethyl-1,6,9,12-tetraazabicyclo+11.3.1+heptadecane-2,5,8,11-tetraone]	2.86	116.6
COC[C@@H]1NC(=O)[C@H](C)N(Cc2ccc(Cl)cc2Oc2ccc(-c3cnc(CN4CCCC4)n3C)cc2)C(=O)C[C@@H]([C@H]2CCc3ccccc32)C(=O)N(C)C[C@@H](Cc2ccc(Cl)cc2)N(C)C1=O.Cl [Compound 101, (2S, 5S, 8R, 12S)-1-(4-chloro-2-(4-(1-methyl-2-(pyrrolidin-1-ylmethyl)-1H-imidazol-5-yl)phenoxy)benzyl)-8-(4-chlorobenzyl)-12-((R)-2,3-dihydro-1H-inden-1-yl)-5-(methoxymethyl)-2,7,10-trimethyl-1,4,7,10-tetraazacyclotetradecane-3,6,11,14-tetraone]	1.94	98.3
C[C@H]1C(=O)N[C@@H](CO)C(=O)N(C)[C@H](Cc2ccc(Cl)cc2)CN(C)C(=O)[C@H]([C@H]2COc3ccccc32)CC(=O)N1Cc1ccc(Cl)cc1Oc1ccc(-c2cnc(CN3CCCC3)n2C)cc1.Cl [Compound 102, (2S, 5S, 8R, 12S)-1-(4-chloro-2-(4-(1-methyl-2-(pyrrolidin-1-ylmethyl)-1H-imidazol-5-yl)phenoxy)benzyl)-8-(4-chlorobenzyl)-12-((R)-2,3-dihydrobenzofuran-3-yl)-5-(hydroxymethyl)-2,7,10-trimethyl-1,4,7,10-tetraazacyclotetradecane-3,6,11,14-tetraone]	1.38	100.8
COc1cccc2c1OC[C@@H]2[C@@H]1CC(=O)N(Cc2ccc(Cl)cc2Oc2ccc(-c3cnc(CN4CCCC4)n3C)cc2)[C@@H](C)C(=O)N[C@@H](CO)C(=O)N(C)[C@H](Cc2ccc(Cl)cc2)CN(C)C1=O.Cl [Compound 103, (2S, 5S, 8R, 12S)-1-(4-chloro-2-(4-(1-methyl-2-(pyrrolidin-1-ylmethyl)-1H-imidazol-5-yl)phenoxy)benzyl)-8-(4-chlorobenzyl)-5-(hydroxymethyl)-12-((R)-7-methoxy-2,3-dihydrobenzofuran-3-yl)-2,7,10-trimethyl-1,4,7,10-tetraazacyclotetradecane-3,6,11,14-tetraone]	2.08	98.4
CCOCCOCCOCc1ncc(-c2ccc(Oc3cc(Cl)ccc3CN3C(=O)N[C@@H](Cc4ccccc4)C(=O)N4CCC[C@@](Cc5ccc(Cl)cc5)(C4)NC(=O)[C@H](CO)NC(=O)[C@@H]3C)cc2)n1C.Cl [Compound 104]	1.84	69.1
COC[C@@H]1NC(=O)[C@H](CCF)N(Cc2ccc(Cl)cc2Oc2ccc(-c3cnc(CN(C)C)n3C)cc2)C(=O)C[C@@H](Cc2ccccc2)C(=O)N2CCC[C@@](Cc3ccc(Cl)cc3)(C2)NC1=O.Cl [Compound 105, (3R,7S,10S,13R)-3-benzyl-6-(4-chloro-2-(4-(2-((dimethylamino)methyl)-1-methyl-1H-imidazol-5-yl)phenoxy)benzyl)-13-(4-chlorobenzyl)-7-(2-fluoroethyl)-10-(methoxymethyl)-1,6,9,12-tetraazabicyclo[11.3.1]heptadecane-2,5,8,11-tetraone hydrochloride]	6.12	97.0
C[C@H]1C(=O)N[C@@H](CO)C(=O)N(C)[C@H](Cc2ccc(Cl)cc2)CN(C)C(=O)[C@H](Cc2ccccc2)CC(=O)N1Cc1ccc(Cl)cc1Oc1cc(F)c(-c2cnc(CN3CCCC3)n2C)c(F)c1.Cl [Compound 106, (2S, 5S, 8R, 12R)-12-benzyl-1-(4-chloro-2-(3,5-difluoro-4-(1-methyl-2-(pyrrolidin-1-ylmethyl)-1H-imidazol-5-yl)phenoxy)benzyl)-8-(4-chlorobenzyl)-5-(hydroxymethyl)-2,7,10-trimethyl-1,4,7,10-tetraazacyclotetradecane-3,6,11,14-tetraone]	8.52	105.1
C[C@@H](c1ccccc1)[C@@H]1CC(=O)N(Cc2ccc(Cl)cc2Oc2ccc(-c3cnc(CN4CCCC4)n3C)cc2)[C@@H](C)C(=O)N[C@@H](CO)C(=O)N(C)[C@H](Cc2ccc(Cl)cc2)CN(C)C1=O.Cl [Compound 107, (2S, 5S, 8R, 12S)-1-(4-chloro-2-(4-(1-methyl-2-(pyrrolidin-1-ylmethyl)-1H-imidazol-5-yl)phenoxy)benzyl)-8-(4-chlorobenzyl)-5-(hydroxymethyl)-2,7,10-trimethyl-12-((R)-1-phenylethyl)-1,4,7,10-tetraazacyclotetradecane-3,6,11,14-tetraone]	7.83	105.6
C[C@H]1C(=O)N[C@@H](CO)C(=O)N(C)[C@H](Cc2ccc(Cl)cc2)CN(C)C(=O)[C@H](Cc2ccccc2)CC(=O)N1Cc1ccc(Cl)cc1Oc1ccc(-c2cnc(CN3CCCC3)n2C)cc1.Cl [Compound 108, (2S, 5S, 8R, 12R)-12-benzyl-1-(4-chloro-2-(4-(1-methyl-2-(pyrrolidin-1-ylmethyl)-1H-imidazol-5-yl)phenoxy)benzyl)-8-(4-chlorobenzyl)-5-(hydroxymethyl)-2,7,10-trimethyl-1,4,7, 10-tetraazacyclotetradecane-3,6,11,14-tetraone]	9.32	104.6
